According to US10314323B2, “Methods for improving the condition of hair in non-human animals” (Hill's Pet Nutrition, Inc., priority 2012, dated 2019):
Entries after “also recorded” stand apart in the source; their conditions may differ.

tested on: healthy adult cats; test: Hair 18-MEA content after feeding amino acid supplemented diets to healthy cats; format: in vivo, cat; details: versus control base diet, regression model with base line as covariant; p<0.05 for isoleucine and threonine, p>0.05 for leucine
Source text: The hair was clipped from the left middle flank areas of 24 healthy adult cats. The clipped regions measured approximately 20.32 cm by 10.16 cm (about 8 inches by about 4 inches). Hair was clipped as close to the skin as possible. The cats were then fed a base diet consisting of a commercially available nutritionally complete food for a period of 90 days. The nutrient content of the base food is set out in Table 1. On day 90, newly grown hair was clipped from the left middle flanks of the cats. The clipped regions measured approximately 19.05 cm by 8.89 cm (about 7.5 inches by about 3.5 inches). Samples of the clipped hair from each cat were retained and analysed for their 18-MEA content in order to determine the base line levels. The cats were divided into four groups of 6. The age, sex and nurturing status of the cats were balanced between the groups. The groups were randomly assigned a diet selected from the base diet, the base diet plus supplemental leucine, the base diet plus supplemental isoleucine, and the base diet plus supplemental threonine as shown in Table 2. The groups were fed the assigned diets for 90 days. On day 180, the newly grown hair was clipped from the left middle flanks of the cats. The clipped regions measured approximately 17.78 cm by 7.62 cm (about 7 inches by about 3 inches). Samples of clipped hair from each cat were retained and analysed for 18-MEA content. For the 18-MEA analysis, hair samples were first washed with circulating ethyl ether for 6 hours to remove the surface lipids and oils. The hair samples were cut into pieces about 5 mm in length or less, digested and extracted for 18-MEA that was measured with a gas chromatograph. The 18-MEA data were analysed using a regression model. Hair 18-MEA content was the dependent variable, and diet was used as the independent variable. The base line data were used as the covariant.

**Q.** Which “Effect on 18-MEA concentration of the hair” value (“Effect” below) does the source give for `CC[C@H](C)[C@H](N)C(=O)O` [isoleucine, (2S, 3S)-2-amino-3-methylpentanoic acid] here?
**A.** increase; also recorded: significantly increased

**Q.** Which “Effect” value does the source give for `C[C@@H](O)[C@H](N)C(=O)O` [threonine, (2S, 3R)-2-amino-3-hydroxybutanoic acid] here?
**A.** increase; also recorded: significantly increased

**Q.** Which “Effect” value does the source give for `CC(C)C[C@H](N)C(=O)O` [Leucine, leucine, reference compound] here?
**A.** no significant effect
